# ± gives the standard deviation of the averaged measurements.
# Columns and labels:
# 17-AAG = compound: C=CCNC1=C2C[C@@H](C)C[C@H](OC)[C@H](O)[C@@H](C)/C=C(\C)[C@H](OC(N)=O)[C@@H](OC)/C=C\C=C(/C)C(=O)NC(=CC1=O)C2=O [17-AAG]; test: surviving fraction relative to DMSO-only wells; higher = less growth inhibition; conditions: exposure time: 5 days
# Summary of the method: (§1)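 A line counted only if its three screens reached replicate Pearson r >0.7 and median Z' >0.3. Tumour cells in log phase were seeded at 250–500 per well in 384-well plates and, after 24 hours, kept in continuous contact with inhibitors at 0.5, 1, 5, 10, 50, 100, 500 and 1000 nM for five days. Surviving fraction was taken from CellTiter-Glo luminescence relative to the median of DMSO-only wells.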
# VISMODEGIB = compound: CS(=O)(=O)c1ccc(C(=O)Nc2ccc(Cl)c(-c3ccccn3)c2)c(Cl)c1 [VISMODEGIB]; test: as above; conditions: exposure time: 5 days
# Summary of the method: as §1
Test System,surviving fraction (17-AAG; 0.5 nM),surviving fraction (17-AAG; 1 nM),surviving fraction (17-AAG; 5 nM),surviving fraction (17-AAG; 10 nM),surviving fraction (17-AAG; 50 nM),surviving fraction (17-AAG; 100 nM),surviving fraction (17-AAG; 500 nM),surviving fraction (17-AAG; 1000 nM),surviving fraction (VISMODEGIB; 0.5 nM),surviving fraction (VISMODEGIB; 1 nM),surviving fraction (VISMODEGIB; 5 nM),surviving fraction (VISMODEGIB; 10 nM),surviving fraction (VISMODEGIB; 50 nM),surviving fraction (VISMODEGIB; 100 nM),surviving fraction (VISMODEGIB; 500 nM),surviving fraction (VISMODEGIB; 1000 nM)
SYO1 SYNOVIAL,0.8369 ± 0.0068,0.819 ± 0.049,0.8483 ± 0.0038,0.8 ± 0.038,0.488 ± 0.042,0.183 ± 0.012,0.0407 ± 0.0017,0.0322 ± 0.0014,0.953 ± 0.052,0.978 ± 0.049,0.992 ± 0.014,0.994 ± 0.054,0.879 ± 0.042,0.882 ± 0.041,0.884 ± 0.045,0.898 ± 0.048
T47D BREAST,0.943 ± 0.058,0.914 ± 0.035,0.944 ± 0.011,0.958 ± 0.046,0.928 ± 0.023,0.747 ± 0.032,0.4288 ± 0.004,0.425 ± 0.0062,0.993 ± 0.034,0.965 ± 0.049,1.01 ± 0.025,0.988 ± 0.012,0.99 ± 0.035,1.07 ± 0.015,0.983 ± 0.013,0.989 ± 0.025
U2OS BONE,0.943 ± 0.049,0.9303 ± 0.0058,0.991 ± 0.018,0.886 ± 0.05,0.627 ± 0.0092,0.143 ± 0.004,0.0713 ± 0.0021,0.0763 ± 0.0032,1.04 ± 0.019,1.07 ± 0.042,1.09 ± 0.012,1.05 ± 0.013,1.02 ± 0.065,1.04 ± 0.046,1.05 ± 0.028,1.07 ± 0.024
VCAP PROSTATE,0.94 ± 0.075,0.969 ± 0.054,1.12 ± 0.17,1.03 ± 0.12,0.683 ± 0.066,0.19 ± 0.018,0.167 ± 0.016,0.183 ± 0.03,1.04 ± 0.046,1 ± 0.11,1.1 ± 0.18,1.13 ± 0.22,0.905 ± 0.033,1.08 ± 0.12,0.914 ± 0.066,0.981 ± 0.1
VP229 BREAST,0.808 ± 0.1,0.782 ± 0.031,0.842 ± 0.076,0.773 ± 0.085,0.641 ± 0.089,0.387 ± 0.042,0.101 ± 0.013,0.0917 ± 0.012,1.27 ± 0.025,1.1 ± 0.065,1.15 ± 0.13,1.14 ± 0.082,0.972 ± 0.14,1.01 ± 0.017,1.15 ± 0.16,1.11 ± 0.014
YAMATO SYNOVIAL,0.976 ± 0.059,0.815 ± 0.022,0.936 ± 0.084,0.89 ± 0.039,1.22 ± 0.039,0.735 ± 0.064,0.357 ± 0.0093,0.318 ± 0.0064,1.24 ± 0.083,1.26 ± 0.099,1.34 ± 0.087,1.37 ± 0.067,0.917 ± 0.031,0.967 ± 0.15,0.805 ± 0.066,0.82 ± 0.12
ZR751 BREAST,1.17 ± 0.2,1.04 ± 0.12,0.994 ± 0.1,0.618 ± 0.13,0.22 ± 0.022,0.228 ± 0.032,0.213 ± 0.013,0.207 ± 0.024,0.853 ± 0.06,0.937 ± 0.16,0.799 ± 0.15,0.971 ± 0.12,0.756 ± 0.036,0.857 ± 0.037,0.835 ± 0.15,0.945 ± 0.06
